Each structure is given as a SMILES string.

Data on 29 compounds can be found in patent publication US10759813B2, “Neprilysin inhibitors” (THERAVANCE BIOPHARMA R&D IP, LLC, priority 2010, dated 2020).

Sequence of human neprilysin (EC 3.4.24.11; NEP) (P08473 52-750): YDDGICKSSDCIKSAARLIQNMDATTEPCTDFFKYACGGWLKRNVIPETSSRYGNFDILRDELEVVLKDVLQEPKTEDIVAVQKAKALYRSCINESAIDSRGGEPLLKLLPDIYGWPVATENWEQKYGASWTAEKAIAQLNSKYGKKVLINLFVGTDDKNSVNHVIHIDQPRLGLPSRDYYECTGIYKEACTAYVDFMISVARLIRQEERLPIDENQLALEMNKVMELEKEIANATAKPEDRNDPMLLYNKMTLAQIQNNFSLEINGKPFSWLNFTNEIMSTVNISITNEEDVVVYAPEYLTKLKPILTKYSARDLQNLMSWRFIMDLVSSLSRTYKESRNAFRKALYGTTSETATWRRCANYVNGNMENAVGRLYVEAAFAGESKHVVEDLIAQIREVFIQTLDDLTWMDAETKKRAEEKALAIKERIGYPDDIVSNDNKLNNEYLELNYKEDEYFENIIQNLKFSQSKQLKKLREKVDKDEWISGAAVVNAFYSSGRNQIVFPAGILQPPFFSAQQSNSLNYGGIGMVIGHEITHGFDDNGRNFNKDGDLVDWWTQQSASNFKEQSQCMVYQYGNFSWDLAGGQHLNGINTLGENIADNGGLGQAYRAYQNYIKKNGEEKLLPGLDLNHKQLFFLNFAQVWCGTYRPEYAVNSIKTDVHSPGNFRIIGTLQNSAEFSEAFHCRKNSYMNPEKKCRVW

The assay addresses human neprilysin (EC 3.4.24.11; NEP) (Homo sapiens (Human), UniProt P08473). Description: In vitro enzyme inhibition assay at human NEP (fluorogenic peptide substrate). The following applies: pKi values at human NEP, recombinant human NEP. In kind it is biochemical. The procedure, abridged:
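Recombinant human NEP preincubated 30 min at 37 °C with compound (10 μM down to pM), then 10 μM Mca-D-Arg-Arg-Leu-Dap-(Dnp)-OH in 50 mM HEPES pH 7.5, 100 mM NaCl, 0.01% Tween-20, 10 μM ZnSO4. Stopped after 20 min with acetic acid; fluorescence Ex320/Em405; Ki by nonlinear fit, reported as pKi.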
For `O=C(N[C@H](Cc1ccc(-c2ccccc2)cc1)CC(O)C(=O)O)c1cc(C(=O)O)n(Cc2cccc(Cl)c2)n1` (stereo partly drawn) [Example 15-7, 5-((R)-1-Biphenyl-4-ylmethyl-3-carboxy-3-hydroxypropylcarbamoyl)-2-(3-chlorobenzyl)-2H-pyrazole-3-carboxylic acid], the inhibition constant Ki was 0.00126 to 0.01 µM. The same measure, in the same setting: in the case of `O=C(N[C@H](Cc1ccc(-c2ccccc2)cc1)CC(O)C(=O)O)c1cc(C(=O)O)n(Cc2c(F)cc(Cl)cc2F)n1` (stereo partly drawn) [Example 15-8, 5-((R)-1-Biphenyl-4-ylmethyl-3-carboxy-3-hydroxy-propylcarbamoyl)-2-(4-chloro-2,6-difluorobenzyl)-2H-pyrazole-3-carboxylic acid] it was 0.00126 to 0.01 µM; in that of `O=C(N[C@H](Cc1ccc(-c2ccccc2)cc1)CC(O)C(=O)O)c1cc(C(=O)O)n(Cc2ccccc2Cl)n1` (stereo partly drawn) [Example 15-9, 5-((R)-1-Biphenyl-4-ylmethyl-3-carboxy-3-hydroxy-propylcarbamoyl)-2-(2-chlorobenzyl)-2H-pyrazole-3-carboxylic acid], 0.00126 to 0.01 µM. Still for that read-out and setting: the figure for `O=C(N[C@H](Cc1ccc(-c2ccccc2)cc1)CC(O)C(=O)O)c1cc(C(=O)O)n(Cc2cc(F)ccc2Cl)n1` (stereo partly drawn) [Example 15-10, 5-((R)-1-Biphenyl-4-ylmethyl-3-carboxy-3-hydroxy-propylcarbamoyl)-2-(2-chloro-5-fluorobenzyl)-2H-pyrazole-3-carboxylic acid] is 0.00126 to 0.01 µM; for `O=C(N[C@H](Cc1ccc(-c2ccccc2)cc1)CC(O)C(=O)O)c1cc(C(=O)O)n(Cc2cc(F)cc(Cl)c2)n1` (stereo partly drawn) [Example 15-11, 5-((R)-1-Biphenyl-4-ylmethyl-3-carboxy-3-hydroxy-propylcarbamoyl)-2-(3-chloro-5-fluorobenzyl)-2H-pyrazole-3-carboxylic acid] it is 0.00126 to 0.01 µM; for `O=C(N[C@H](Cc1ccc(-c2ccccc2)cc1)CC(O)C(=O)O)c1cc(C(=O)O)n(Cc2ccc(Cl)c(OC(F)(F)F)c2)n1` (stereo partly drawn) [Example 15-12, 5-((R)-1-Biphenyl-4-ylmethyl-3-carboxy-3-hydroxy-propylcarbamoyl)-2-(4-chloro-3-trifluoromethoxybenzyl)-2H-pyrazole-3-carboxylic acid] it is 0.0126 to 0.1 µM. On the same count and under the same terms, in the case of `O=C(N[C@H](Cc1ccc(-c2ccccc2)cc1)CC(O)C(=O)O)c1cc(C(=O)O)n(Cc2ccc(Cl)cc2F)n1` (stereo partly drawn) [Example 15-13, 5-((R)-1-Biphenyl-4-ylmethyl-3-carboxy-3-hydroxy-propylcarbamoyl)-2-(4-chloro-2-fluorobenzyl)-2H-pyrazole-3-carboxylic acid] it was 0.00126 to 0.01 µM. For the compound `O=C(N[C@H](Cc1ccc(-c2ccccc2)cc1)CC(O)C(=O)O)c1cc(C(=O)O)n(Cc2ccc(F)c(Cl)c2)n1` (stereo partly drawn) [Example 15-14, 5-((R)-1-Biphenyl-4-ylmethyl-3-carboxy-3-hydroxy-propylcarbamoyl)-2-(3-chloro-4-fluorobenzyl)-2H-pyrazole-3-carboxylic acid], the Ki is 0.00126 to 0.01 µM. Still for that read-out and setting: the figure for `O=C(N[C@H](Cc1ccc(-c2ccccc2)cc1)CC(O)C(=O)O)c1cc(C(=O)O)n(Cc2ccc(Cl)cc2)n1` (stereo partly drawn) [Example 15-15, 5-((R)-1-Biphenyl-4-ylmethyl-3-carboxy-3-hydroxy-propylcarbamoyl)-2-(4-chlorobenzyl)-2H-pyrazole-3-carboxylic acid] is 0.00126 to 0.01 µM; for `O=C(N[C@H](Cc1ccc(-c2ccccc2)cc1)CC(O)C(=O)O)c1cc(C(=O)O)n(Cc2c(F)ccc(Cl)c2F)n1` (stereo partly drawn) [Example 15-16, 5-((R)-1-Biphenyl-4-ylmethyl-3-carboxy-3-hydroxy-propylcarbamoyl)-2-(3-chloro-2,6-difluorobenzyl)-2H-pyrazole-3-carboxylic acid] it is 0.00126 to 0.01 µM. On the same count and under the same terms, in the case of `COc1cccc(Cn2nc(C(=O)N[C@H](Cc3ccc(-c4ccccc4)cc3)CC(O)C(=O)O)cc2C(=O)O)c1` (stereo partly drawn) [Example 15-17, 5-((R)-1-Biphenyl-4-ylmethyl-3-carboxy-3-hydroxy-propylcarbamoyl)-2-(3-methoxy-benzyl)-2H-pyrazole-3-carboxylic acid] it was 0.0126 to 0.1 µM; in that of `Cc1cc(C(=O)N[C@H](Cc2ccc(-c3ccccc3)cc2)CC(O)C(=O)O)n[nH]1` (stereo partly drawn) [Example 15-19, (R)-5-Biphenyl-4-yl-2-hydroxy-4-[(5-methyl-1H-pyrazole-3-carbonyl)amino]pentanoic acid], 0.0126 to 0.1 µM.

For the compound `O=C(N[C@H](Cc1ccc(-c2ccccc2)cc1)C[C@@H](O)C(=O)O)c1cc(-c2ccncc2)[nH]n1` [Example 15-20, (2R,4R)-5-Biphenyl-4-yl-2-hydroxy-4-[(5-pyridin-4-yl-1H-pyrazole-3-carbonyl)-amino]-pentanoic acid], the Ki was 0.00126 to 0.01 µM. `O=C(N[C@H](Cc1ccc(-c2ccccc2)cc1)C[C@@H](O)C(=O)O)c1cc(-c2cccnc2)[nH]n1` [Example 15-21, (2R,4R)-5-Biphenyl-4-yl-2-hydroxy-4-[(5-pyridin-3-yl-1H-pyrazole-3-carbonyl)-amino]-pentanoic acid]: the pKi is no less than 9.0. With `O=C(N[C@H](Cc1ccc(-c2ccccc2)cc1)CC(O)C(=O)O)c1cc(-c2cnccn2)[nH]n1` (stereo partly drawn) [Example 15-22, (R)-5-Biphenyl-4-yl-2-hydroxy-4-[(5-pyrazin-2-yl-1H-pyrazole-3-carbonyl)amino]-pentanoic acid], the Ki was 0.00126 to 0.01 µM. The same measure, in the same setting: the figure for `Cn1cc(-c2cc(C(=O)N[C@H](Cc3ccc(-c4ccccc4)cc3)CC(O)C(=O)O)n[nH]2)cn1` (stereo partly drawn) [Example 15-23, (R)-5-Biphenyl-4-yl-2-hydroxy-4-[(1′-methyl-2H, 1′H-[3,4′]bipyrazolyl-5-carbonyl)amino]-pentanoic acid] is 0.0126 to 0.1 µM; for `O=C(N[C@H](Cc1ccc(-c2ccccc2)cc1)CC(O)C(=O)O)c1cc(-c2ccccc2Cl)[nH]n1` (stereo partly drawn) [Example 15-24, (R)-5-Biphenyl-4-yl-4-{[5-(2-chlorophenyl)-1H-pyrazole-3-carbonyl]amino}-2-hydroxy-pentanoic acid] it is 0.00126 to 0.01 µM.

`O=C(N[C@H](Cc1ccc(-c2ccccc2)cc1)C[C@@H](O)C(=O)O)c1cc(-c2cccc(Cl)c2)[nH]n1` [Example 15-25, (2R,4R)-5-Biphenyl-4-yl-4-{[5-(3-chlorophenyl)-1H-pyrazole-3-carbonyl]-amino}-2-hydroxy-pentanoic acid]: the negative logarithm of the Ki (pKi) is on record as no less than 9.0. Same read-out and setting: in the case of `O=C(N[C@H](Cc1ccc(-c2ccccc2)cc1)C[C@@H](O)C(=O)O)c1cc(-c2ccc(Cl)cc2Cl)[nH]n1` [Example 15-26, (2R,4R)-5-Biphenyl-4-yl-4-{[5-(2,4-dichlorophenyl)-1H-pyrazole-3-carbonyl]-amino}-2-hydroxy-pentanoic acid] it was no less than 9.0; in that of `O=C(N[C@H](Cc1ccc(-c2ccccc2)cc1)C[C@@H](O)C(=O)O)c1cc(-c2cc(Cl)ccc2Cl)[nH]n1` [Example 15-27, (2R,4R)-5-Biphenyl-4-yl-4-{[5-(2,5-dichlorophenyl)-1H-pyrazole-3-carbonyl]-amino}-2-hydroxy-pentanoic acid], no less than 9.0. For `O=C(N[C@H](Cc1ccc(-c2ccccc2)cc1)C[C@@H](O)C(=O)O)c1cc(-c2ccccc2O)[nH]n1` [Example 15-28, (2R,4R)-5-Biphenyl-4-yl-2-hydroxy-4-{[5-(2-hydroxy-phenyl)-1H-pyrazole-3-carbonyl]-amino}-pentanoic acid], the negative logarithm of the Ki (pKi) is listed as no less than 9.0. Take `O=C(N[C@H](Cc1ccc(-c2ccccc2)cc1)C[C@@H](O)C(=O)O)c1cc(-c2ccccc2O)n(CC(O)CO)n1` (stereo partly drawn) [Example 15-30, (2R,4R)-5-Biphenyl-4-yl-4-{[1-(2,3-dihydroxy-propyl)-5-(2-hydroxy-phenyl)-1H-pyrazole-3-carbonyl]-amino}-2-hydroxy-pentanoic acid]: the pKi is reported as no less than 9.0. With `CC(=O)Nc1cccc(-c2cc(C(=O)N[C@H](Cc3ccc(-c4ccccc4)cc3)CC(O)C(=O)O)n[nH]2)c1` (stereo partly drawn) [Example 15-31, (R)-4-{[5-(3-Acetylamino-phenyl)-1H-pyrazole-3-carbonyl]amino}-5-biphenyl-4-yl-2-hydroxypentanoic acid], the Ki was 0.00126 to 0.01 µM. As to `COc1ccccc1C(=O)Nc1cc(C(=O)N[C@H](Cc2ccc(-c3ccccc3)cc2)C[C@@H](O)C(=O)O)n[nH]1` [Example 15-32, (2R,4R)-5-Biphenyl-4-yl-2-hydroxy-4-{[5-(2-methoxy-benzoylamino)-1H-pyrazole-3-carbonyl]-amino}-pentanoic acid], the Ki was 0.00126 to 0.01 µM. Consider `O=C(N[C@H](Cc1ccc(-c2ccccc2)cc1)C[C@@H](O)C(=O)O)c1cc(-c2ccccc2)[nH]n1` [Example 15-33, (2R,4R)-5-Biphenyl-4-yl-2-hydroxy-4-[(5-phenyl-1H-pyrazole-3-carbonyl)-amino]-pentanoic acid], for which the pKi was no less than 9.0. Turning to `Cn1nc(C(=O)N[C@H](Cc2ccc(-c3ccccc3)cc2)CC(O)C(=O)O)cc1-c1ccccc1` (stereo partly drawn) [Example 15-34, (R)-5-Biphenyl-4-yl-2-hydroxy-4-[(1-methyl-5-phenyl-1H-pyrazole-3-carbonyl)amino]-pentanoic acid], the Ki was 0.00126 to 0.01 µM. Consider `O=C(O)Cn1nc(C(=O)N[C@H](Cc2ccc(-c3ccccc3)cc2)C[C@@H](O)C(=O)O)cc1-c1ccccc1` [Example 15-35, (2R,4R)-5-Biphenyl-4-yl-4-[(1-carboxymethyl-5-phenyl-1H-pyrazole-3-carbonyl)-amino]-2-hydroxy-pentanoic acid], for which the pKi is no less than 9.0. Take `O=C(O)CCn1nc(C(=O)N[C@H](Cc2ccc(-c3ccccc3)cc2)C[C@@H](O)C(=O)O)cc1-c1ccccc1` [Example 15-36, (2R,4R)-5-Biphenyl-4-yl-4-{[1-(2-carboxy-ethyl)-5-phenyl-1H-pyrazole-3-carbonyl]-amino}-2-hydroxy-pentanoic acid]: the Ki was 0.00126 to 0.01 µM. Same read-out and setting: the figure for `O=C(N[C@H](Cc1ccc(-c2ccccc2)cc1)CC(O)C(=O)O)c1cc(-c2ccco2)[nH]n1` (stereo partly drawn) [Example 15-37, (R)-5-Biphenyl-4-yl-4-[(5-furan-2-yl-1H-pyrazole-3-carbonyl)amino]-2-hydroxy-pentanoic acid] is 0.00126 to 0.01 µM.
